Reference: ChEMBL document CHEMBL1201862, “PubChem BioAssay data set” (2004)
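1) Cells in 96-well plates. 2) Compound, 48 h, 5 concentrations. 3) Linear interpolation between surrounding doses. 4) Unreached endpoint = highest concentration. At the GI50, growth is halved.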 The source made the active and inactive calls. Cut-off read from the data, not from the text of the source: active = GI50 up to about 1.1 µM and inactive = higher.

Tests used:
Assay in all cases: DTP human tumour cell line panel, 48 h
786-0 = tested on: 786-0
A498 = tested on: A498
ACHN = tested on: ACHN
CCRF-CEM = tested on: CCRF-CEM
IGROV-1 = tested on: IGROV-1
NCI-H226 = tested on: NCI-H226
RXF 393 = tested on: RXF 393
SF-268 = tested on: SF-268
SF-539 = tested on: SF-539
SK-MEL-2 = tested on: SK-MEL-2
SN12C = tested on: SN12C
SR = tested on: SR
TK-10 = tested on: TK-10
HL-60 = tested on: HL-60
K562 = tested on: K562

Measured: GI50

N#C/C(=C\c1ccc2ccccc2c1)c1ccccc1
inactive: 786-0 18.9 µM | A498 23.6 µM | ACHN 18.7 µM | CCRF-CEM 32.5 µM | IGROV-1 14.9 µM | NCI-H226 53.2 µM | RXF 393 38.8 µM | SF-268 39.6 µM | SF-539 17.3 µM | SK-MEL-2 25.8 µM | SN12C 39.8 µM | SR 46.8 µM | TK-10 34.3 µM

CCCCCCCCCCCCn1[nH]c(C)c(C(=S)SCCCCCCCC)c1=O
inactive: 786-0 45.4 µM | A498 > 100 µM | ACHN 37.6 µM | CCRF-CEM 28.1 µM | HL-60 45.1 µM | IGROV-1 > 91.6 µM | K562 40.3 µM | NCI-H226 23.4 µM | RXF 393 37.3 µM | SF-268 > 72.6 µM | SF-539 73.8 µM | SK-MEL-2 > 100 µM | SN12C 86.3 µM | TK-10 64.6 µM

COc1ccc(/C=C/C(=O)c2sc(N)nc2C)cc1
inactive: 786-0 > 100 µM | A498 > 100 µM | CCRF-CEM > 100 µM | HL-60 > 100 µM | IGROV-1 > 100 µM | K562 > 100 µM | RXF 393 > 100 µM | SF-268 > 100 µM | SF-539 > 100 µM | SK-MEL-2 > 100 µM | SN12C > 100 µM | TK-10 > 100 µM

O=C1OC(=O)c2c1c(-c1ccccc1)cn2-c1ccc(Cl)cc1
inactive: 786-0 > 100 µM | ACHN 37.2 µM | CCRF-CEM 35.6 µM | HL-60 1.15 µM | IGROV-1 24.7 µM | K562 2.22 µM | NCI-H226 > 100 µM | SF-268 > 100 µM | SF-539 > 100 µM | SK-MEL-2 > 100 µM | SN12C > 100 µM | SR > 100 µM | TK-10 > 100 µM

COc1nc(NC2OC(COC(C)=O)C(OC(C)=O)C(OC(C)=O)C2OC(C)=O)c(-c2csc(N)n2)c(=O)n1C (stereo unspecified)
inactive: 786-0 20.5 µM | A498 > 100 µM | ACHN 38.4 µM | CCRF-CEM > 100 µM | IGROV-1 > 100 µM | K562 60.1 µM | NCI-H226 37.9 µM | SF-268 25.9 µM | SF-539 54.2 µM | SK-MEL-2 21.5 µM | SN12C > 100 µM | SR > 100 µM | TK-10 > 100 µM

N/N=C(\Cc1ccccc1)NN=C(N)N
inactive: 786-0 > 100 µM | A498 > 100 µM | ACHN 53.7 µM | CCRF-CEM 26.5 µM | HL-60 > 100 µM | IGROV-1 > 100 µM | K562 > 100 µM | NCI-H226 > 100 µM | SF-268 > 100 µM | SF-539 > 100 µM | SK-MEL-2 > 100 µM | SN12C > 100 µM | SR > 100 µM | TK-10 > 100 µM

O=C(/C=C/c1ccc(Cl)c(Cl)c1)c1cccc2ccccc12
inactive: 786-0 3.4 µM | A498 22.5 µM | ACHN 16.4 µM | CCRF-CEM 2.53 µM | HL-60 2.07 µM | IGROV-1 11.7 µM | K562 3.17 µM | NCI-H226 14.4 µM | SF-268 4.52 µM | SF-539 2.96 µM | SN12C 16.9 µM | TK-10 16.8 µM

O=C1CCC(=O)c2c1c(O)c1ccncc1c2O
inactive: 786-0 15.7 µM | ACHN 15.3 µM | CCRF-CEM 14.8 µM | HL-60 7.94 µM | IGROV-1 15 µM | K562 18.8 µM | NCI-H226 20.6 µM | RXF 393 21 µM | SF-539 15.6 µM | SK-MEL-2 13.6 µM | SN12C 17.5 µM | SR 13 µM | TK-10 18.4 µM

Cc1ccc(/N=N/c2ccc(N(CCC#N)CCC#N)cc2C)c(Br)c1
inactive: 786-0 17 µM | A498 51.9 µM | ACHN 15 µM | CCRF-CEM 5.85 µM | HL-60 5.42 µM | IGROV-1 37.4 µM | K562 3.13 µM | NCI-H226 17.2 µM | RXF 393 9.27 µM | SF-268 21.1 µM | SF-539 14.4 µM | SK-MEL-2 16.9 µM | SN12C 19.4 µM | TK-10 16.7 µM

NC(=O)N/N=C(\CC1OC(=O)c2ccccc21)c1ccco1 (stereo unspecified)
inactive: 786-0 92.9 µM | A498 > 100 µM | ACHN > 100 µM | CCRF-CEM > 100 µM | HL-60 > 100 µM | IGROV-1 > 100 µM | K562 > 100 µM | NCI-H226 > 100 µM | RXF 393 > 100 µM | SF-268 > 100 µM | SF-539 > 100 µM | SK-MEL-2 > 100 µM | TK-10 > 100 µM

O=C1c2ccccc2C(=O)c2nc3ccc(Cl)cc3cc21
inactive: 786-0 > 100 µM | ACHN > 100 µM | CCRF-CEM > 100 µM | IGROV-1 > 100 µM | K562 > 100 µM | NCI-H226 > 100 µM | SF-268 > 100 µM | SF-539 > 100 µM | SK-MEL-2 > 100 µM | SN12C > 100 µM | SR > 100 µM | TK-10 > 100 µM

O=C(N/C(=C\c1ccc(Oc2ccc(Cl)c(Cl)c2)cc1)c1nc2ccccc2[nH]1)c1ccccc1
inactive: 786-0 17.3 µM | ACHN 19.7 µM | CCRF-CEM 17.1 µM | IGROV-1 > 10 µM | K562 8.91 µM | RXF 393 13.9 µM | SF-268 18.1 µM | SF-539 18 µM | SK-MEL-2 19.2 µM | SN12C 18.4 µM | SR 25.6 µM | TK-10 26.1 µM

COc1cc2c(cc1OC)C(=O)N1CCCC1C(=O)S2 (stereo unspecified)
inactive: 786-0 > 100 µM | ACHN > 100 µM | CCRF-CEM > 100 µM | HL-60 > 100 µM | IGROV-1 19.9 µM | K562 > 100 µM | RXF 393 > 100 µM | SF-268 > 100 µM | SF-539 > 100 µM | SK-MEL-2 > 100 µM | SN12C > 100 µM | SR > 100 µM | TK-10 > 100 µM

CC(C)[C@H]1CO[C@@H]2O[C@H](C)CC(=O)N21
inactive: 786-0 > 100 µM | ACHN > 100 µM | CCRF-CEM > 100 µM | HL-60 > 100 µM | IGROV-1 > 100 µM | K562 > 100 µM | NCI-H226 > 100 µM | RXF 393 > 100 µM | SF-268 > 100 µM | SF-539 > 100 µM | SK-MEL-2 > 100 µM | SN12C > 100 µM | SR > 100 µM | TK-10 > 100 µM

CCC(CC)n1c(C)nc2c1C(=O)c1ccccc1C2=O
inactive: 786-0 57.1 µM | ACHN 41.4 µM | CCRF-CEM 42.6 µM | HL-60 10.7 µM | IGROV-1 71.9 µM | K562 21.1 µM | NCI-H226 72.8 µM | RXF 393 35.2 µM | SF-268 49.2 µM | SF-539 34 µM | SK-MEL-2 27.6 µM | SN12C 46.3 µM | SR 25.8 µM | TK-10 35.9 µM
